From paper PMC8258866 (Journal of medicinal chemistry, 2020)

Columns and labels:
[1] = test system: MCF-7:CFR cells; experiment: 3 h treatment and washout study in MCF-7:CFR cells; format: cell-based; conditions: media replaced after 3 h, viability after 5 days
[2] = test system: MCF7:CFR 3D spheroids; experiment: 3D-spheroid growth assay; format: cell-based; conditions: 100 nM; cell viability at day 9
[3] = test system: MCF-7:Tam1 tumors; experiment: MCF-7:TAM1 xenograft, combination with fulvestrant; format: in vivo, athymic nude mice; conditions: 4 weeks
[4] = test system: tamoxifen-resistant MCF-7:TAM1 cell-derived xenograft; experiment: MCF-7:TAM1 xenograft, monotherapy; format: in vivo
[5] = molecular target: BET family proteins; experiment: BROMOscan bromodomain profiling, BET family; format: binding; conditions: across BET family proteins
[6] = Mouse pharmacokinetics; format: in vivo, CD1 mice; conditions: iv 5 mg/kg, mice, HCl salt
[7] = test system: MCF-7:WS8, MCF-7:5C, MCF-7:TAM1, T47D, T47D/TDG, MCF-7:CPR, MCF-7:CFR cells; experiment: Cell growth assay across ER+ breast cancer cell lines; format: cell-based; conditions: read-out: IC50 across all cell lines
[8] = test system: MCF-7:CFR cells; experiment: Cell growth assay in fulvestrant-resistant MCF-7:CFR 2D cultures; format: cell-based; conditions: MCF-7:CFR growth inhibition
[9] = Kinetic solubility; format: physicochemical; conditions: 27 tested as HCl salt; for solubility: PBS, pH 7.4, solubility (PBS, pH 7.4)

Cc1sc2c(c1C)C(c1ccc(Cl)cc1)=N[C@@H](CC(=O)OC(C)(C)C)c1nnc(C)n1-2 [Compound 1, reference compound]
efficacy after drug washout [1]: no significant efficacy at <300 nM
effect on MCF-7:CFR 3D spheroid growth/viability [2]: significantly inhibited growth

CC/C(=C(\c1ccc(O)cc1)c1ccc(OCCN(C)C)cc1)c1ccccc1 [4-hydroxytamoxifen]
effect on MCF-7:CFR 3D spheroid growth/viability [2]: Neither 4-hydroxytamoxifen (4OHT) nor fulvestrant inhibited MCF-7:CFR cell growth

C[C@]12CC[C@@H]3c4ccc(O)cc4C[C@@H](CCCCCCCCC[S+]([O-])CCCC(F)(F)C(F)(F)F)[C@H]3[C@@H]1CC[C@@H]2O (stereo partly shown) [fulvestrant]
effect on MCF-7:CFR 3D spheroid growth/viability [2]: Neither 4-hydroxytamoxifen (4OHT) nor fulvestrant inhibited MCF-7:CFR cell growth

COc1nnc2ccc(N3CCC(c4ccc(OCCN5CCN(C)C(=O)[C@H]5C)cc4)CC3)nn12 [Compound 5, (3R)-4-[2-[4-[1-(3-Methoxy-[1,2,4]-triazolo[4,3-b]pyridazin-6-yl)-4-piperidyl]phenoxy]ethyl]-1,3-dimethyl-piperazin-2-one]
effect on MCF-7:CFR 3D spheroid growth/viability [2]: significantly inhibited growth

CCNC(=O)C[C@@H]1N=C(c2ccc(Cl)cc2)c2cc(OC)ccc2-n2c(C)nnc21 [Compound 2, reference compound]
tumor growth inhibition versus vehicle control ([3]; 50 mg/kg po in combination with fulvestrant sc 1 (mg/mouse)/week): comparable and significant tumor growth inhibition

CCS(=O)(=O)Nc1cc(-c2cn(C)c3c(=O)[nH]ccc23)cc2c1ccn2C(C)(c1ccccn1)c1ccccn1 [Compound 27, N-(1-(1,1-Di(pyridin-2-yl)ethyl)-6-(1-methyl-7-oxo-6,7-dihydro-1H-pyrrolo[2,3-c]pyridin-3-yl)-1H-indol-4-yl)-ethanesulfonamide]
effect on animal body weight ([4]; 50 (mg/kg)/day po, 4 weeks): without any effect on animal body weight
overt signs of toxicity ([4]; once daily administration for 4 weeks): no overt signs of toxicity
Kd [5]: < 1 nM
Cl [6]: 25.5 (mL/min)/kg
efficacy after drug washout [1]: only slightly diminished
effect on MCF-7:CFR 3D spheroid growth/viability [2]: complete loss of spheroid viability
tumor growth inhibition versus vehicle control ([3]; 30 mg/kg po in combination with fulvestrant sc 1 (mg/mouse)/week): comparable and significant tumor growth inhibition
IC50 [7]: < 10 nM
cellular potency over JQ1 [8]: > 100 fold
solubility (PBS, pH 7.4) [9]: 73.43 μM
solubility [9]: 73.4 µM

CC/C(=C(\c1ccccc1)c1ccc(OCCN(C)C)cc1)c1ccccc1 [tamoxifen, reference compound]
effect on tumor growth relative to vehicle control ([4]; 1.5 mg/mouse/day po, day 28): no significant effect on tumor growth

CC(=O)[C@H]1CC[C@H]2[C@@H]3CCC4=CC(=O)CC[C@]4(C)[C@H]3CC[C@]12C [progesterone, reference compound]
solubility [9]: 22.4 µM
